Results as given in ChEMBL document CHEMBL3588849, “New indole-isoxazolone derivatives: Synthesis, characterisation and in vitro SIRT1 inhibition studies” (Bioorg Med Chem Lett, 2015).

Key:
HT-29 = assay: Cytotoxicity against human HT-29 cells after 72 hrs by MTT assay; assay type: functional, cell-based; settings: HT-29, 72 h
MCF7 = assay: Cytotoxicity against human MCF7 cells after 72 hrs by MTT assay; assay type: functional, cell-based; settings: MCF7, 72 h
HEK293 = assay: (§1) Cytotoxicity against HEK293 cells after 72 hrs by MTT assay; assay type: cell-based; settings: human, hek293, 72 h
[1] = molecular target: T1, NAD-dependent protein deacetylase sirtuin-1 (Homo sapiens, UniProt Q96EB6); assay: Inhibition of SIRT1 (unknown origin) using AMC-Arg-His-Lys-Lys(Ac) substrate assessed as deacetylation of substrate by fluorimetric enzyme assay
T1 sequence (Q96EB6 whole entry): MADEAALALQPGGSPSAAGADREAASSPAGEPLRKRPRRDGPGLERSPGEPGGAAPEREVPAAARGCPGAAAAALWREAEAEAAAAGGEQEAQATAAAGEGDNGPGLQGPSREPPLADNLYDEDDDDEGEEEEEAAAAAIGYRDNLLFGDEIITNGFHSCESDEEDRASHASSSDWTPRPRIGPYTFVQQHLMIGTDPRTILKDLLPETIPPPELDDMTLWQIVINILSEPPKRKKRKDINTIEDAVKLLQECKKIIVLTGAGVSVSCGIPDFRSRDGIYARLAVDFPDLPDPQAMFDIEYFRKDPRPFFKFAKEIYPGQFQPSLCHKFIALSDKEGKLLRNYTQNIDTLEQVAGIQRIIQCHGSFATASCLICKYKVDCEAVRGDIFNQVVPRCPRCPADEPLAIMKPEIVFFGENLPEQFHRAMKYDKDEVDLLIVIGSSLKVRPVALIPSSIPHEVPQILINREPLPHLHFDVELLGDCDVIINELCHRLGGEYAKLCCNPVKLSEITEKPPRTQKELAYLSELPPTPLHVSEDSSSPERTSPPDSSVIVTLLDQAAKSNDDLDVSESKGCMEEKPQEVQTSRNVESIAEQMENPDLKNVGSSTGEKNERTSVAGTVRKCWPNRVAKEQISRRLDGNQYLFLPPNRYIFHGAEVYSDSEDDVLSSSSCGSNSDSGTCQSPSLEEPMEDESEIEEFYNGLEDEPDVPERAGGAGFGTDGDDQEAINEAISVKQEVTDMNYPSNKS

MDA-MB-231 = assay: Cytotoxicity against human MDA-MB-231 cells after 72 hrs by MTT assay; assay type: functional, cell-based; settings: MDA-MB-231, 72 h
[2] = as §1; assay type: cell-based; settings: human, HEK293 cells; read-out: GI

| Structure (SMILES) | Activity (HEK293) | other results |
| --- | --- | --- |
| CC1=NOC(=O)/C1=C/c1c(COCc2ccc(C(F)(F)F)cc2)n(C)c2ccc(F)cc12 | Non-toxic | IC50 (HT-29): 4820 nM; IC50 (MCF7): 7.72 µM; IC50 [1]: 35.2 µM; IC50 (MDA-MB-231): 8.23 µM |
| Cn1c(COCc2ccc(C(F)(F)F)cc2)c(/C=C2/C(=O)ON=C2C(F)(F)F)c2cc(F)ccc21 | Non-toxic | IC50 (HT-29): 2590 nM; IC50 (MCF7): 5.51 µM; IC50 [1]: 37.4 µM; IC50 (MDA-MB-231): 5.03 µM |
| CC1=NOC(=O)/C1=C/c1c(C(=O)NCc2ccc(C)cc2)n(C)c2ccc(F)cc12 | Non-toxic | – |
| CC1=NOC(=O)/C1=C/c1c(C(=O)NCc2ccc(OC(F)(F)F)cc2)n(C)c2ccc(F)cc12 | Non-toxic | – |
| CC1=NOC(=O)/C1=C/c1c(C(=O)Nc2ccc(OC(F)(F)F)cc2)n(C)c2ccc(F)cc12 | Non-toxic | – |
| CC1=NOC(=O)/C1=C/c1c(C(=O)NCc2ccc(F)cc2)n(C)c2ccc(F)cc12 | Non-toxic | – |
| Cn1c(C(=O)NCc2ccc(F)cc2)c(/C=C2/C(=O)ON=C2C(F)(F)F)c2cc(F)ccc21 | Non-toxic | – |
| CC1=NOC(=O)/C1=C/c1c(C(=O)N2CCOCC2)n(C)c2ccc(F)cc12 | Non-toxic | – |
| Cn1c(C(=O)N2CCOCC2)c(/C=C2/C(=O)ON=C2C(F)(F)F)c2cc(F)ccc21 | Non-toxic | – |
| CCN1CCN(C(=O)c2c(/C=C3/C(=O)ON=C3C)c3cc(F)ccc3n2C)CC1 | Non-toxic | – |
| CCN1CCN(C(=O)c2c(/C=C3/C(=O)ON=C3C(F)(F)F)c3cc(F)ccc3n2C)CC1 | – | inhibition at 72 h [2]: 30% |
| CC1=NOC(=O)/C1=C/c1c(COCc2cn(Cc3ccc(C(F)(F)F)cc3)nn2)n(C)c2ccc(F)cc12 | – | inhibition at 72 h [2]: 30% |
| CC1=NOC(=O)/C1=C/c1c(COCc2cn(Cc3ccc(OC(F)(F)F)cc3)nn2)n(C)c2ccc(F)cc12 | Non-toxic | – |
| Cn1c(COCc2cn(Cc3ccc(OC(F)(F)F)cc3)nn2)c(/C=C2/C(=O)ON=C2C(F)(F)F)c2cc(F)ccc21 | Non-toxic | – |
| Cn1c(COCc2cn(Cc3ccc([N+](=O)[O-])cc3)nn2)c(/C=C2/C(=O)ON=C2C(F)(F)F)c2cc(F)ccc21 | Non-toxic | – |
| CC1=NOC(=O)/C1=C/c1c(COCc2cn(Cc3ccc(C#N)cc3)nn2)n(C)c2ccc(F)cc12 | Non-toxic | – |
| Cn1c(COCc2cn(Cc3ccc(C#N)cc3)nn2)c(/C=C2/C(=O)ON=C2C(F)(F)F)c2cc(F)ccc21 | Non-toxic | – |
| CC1=NOC(=O)/C1=C/c1c(COCc2ccc(C#N)cc2)n(C)c2ccc(F)cc12 | Non-toxic | – |
| Nc1ccn([C@@H]2O[C@H](CO)[C@@H](O)C2(F)F)c(=O)n1 [GEMCITABINE] | – | IC50 (HT-29): 520 nM; IC50 (MCF7): 0.15 µM; IC50 (MDA-MB-231): 0.65 µM |
